What was measured:
Format in all cases: in vivo, mouse
[1] = tested on: Dup2 mice; test: Quantification of centronucleation of myofibers (H&E) in Dup2 mice; conditions: adult Dup2 mice, tail vein, 3 months post-injection
Protocol: (§1) To induce muscle injury for Evans blue dye (EBD) analysis, a treadmill exercise program was used. In the first week, four month old mice were trained three times on a treadmill at 10° inclination, running as follows: 0 m/min for 2 min, 5 m/min for 5 min, 10 m/min for 15 min, and 12 m/min for 5-10 min. In the following three weeks (3×/week), mice ran on the treadmill at 2 m/min for 30 min. Before mice euthanasia, the treadmill was used at the same inclination at 5 m/min for 5 min. Following this initial warming up, the speed was increased to +1 m/min until exhaustion. EBD solution (10 mg/ml in PBS) was filtered and injected intraperitoneally (IP) into mice after the last treadmill exercise, and mice were sacrificed 24 hrs later. For analysis, muscle sections were stained with α-laminin to distinguish myofibers, and the percentage of positive Evans blue fibers (labeled in red) were then quantified using ImageJ software. For quantification of centronucleation, H&E staining was performed using standard technique, and fiber counting was performed manually using ImageJ. For both analyses, three sections were processed and counted for each animal.
(§2) H&E staining was performed using standard protocol. Quantification of both centronucleation and Evans blue dye (EBD) was performed manually using ImageJ. Three sections were processed and counted for each animal.

[2] = tested on: Dup2 mice; test: Evans blue dye (EBD) positive fibers after exhaustive treadmill exercise in Dup2 mice; conditions: adult Dup2 mice, tail vein
Protocol: as §1, §2

[3] = tested on: DMD exon 2; test: RT-PCR quantification of DMD exon 2 skipping (Dup2, WT, Del2 transcripts) in muscles of Dup2 mice; conditions: adult Dup2 mice, tail vein, 3 months post-injection
Protocol: Total RNA was isolated from tissue samples and analyzed by reverse transcription (RT) followed by PCR. […] For each sample, 1 μg of total RNA was used to generate cDNA by RT-PCR using random hexamer primers according to the manufacturer's protocol (Thermo Scientific, Ferk1672) and then used for a single PCR of 35 cycles using 1 μg of RNA and a mixture of random hexamer and oligo(dT) for each RT reaction. mRNA was then amplified via primers specific to the DMD 5′UTR and the exon 3-4 junction as follows.
Following electrophoresis, PCR products were electrophoresed on a 2% agarose gel and imaged using a Gel Logic 200 Imaging System (Kodak). Quantification of Dup2, WT or Del2 transcript was performed using ImageJ (an open source platform for scientific image analysis), and each band plotted in Prism (GraphPad) as a percentage of the overall dystrophin transcript. The images were then used to quantify the relative amount of each transcript using ImageJ software 14. Using the “Gel” function of ImageJ, a box was drawn in each lane around the area where the three possible transcripts would be. A histogram of each sample was then generated and the area under the curve was measured. The sum of the area under the three peaks were added together and then individual peak area was measured as a percentage of the total.

[4] = tested on: dystrophin; test: Western blot / immunoblot quantification of dystrophin in muscles of Dup2 mice; conditions: for Western blot quantification: % of dystrophin: percent of WT, adult Dup2 mice, tail vein, 3 months post-injection
Protocol: (§3) 150 μl of this lysis buffer was used for 100 mg of tissue. This solution was then put on ice for 30min, and then tissue was lysed using a metal bead (1 min at 30 Hz, TissueLyser II, Qiagen). These last two steps were repeated, and then the lysate was centrifuged at 14000 g for 20min at 4° C. The supernatant was mixed with a classical 4× Laemmli buffer and boiled for 5 min at 100° C. 50-150 μg of protein were run on a precast 3-8% Tris-Acetate gel (NuPage, Life Science) for 16 h at 80V (4° C.). Using a nitrocellulose membrane, gels were transferred overnight at 300 mA using a cooling device. […] All antibodies were diluted in half Odyssey blocking buffer (Licor®) and half Tris buffered saline with Tween (TBST) (Sigma-Aldrich). Following secondary incubation, 5×5 min with 0.1% Tween washes were performed followed by a ddH2O rincing. Both IRDye@ signals were simultaneously scanned using the Odyssey® CLx (LI-COR). The signals for both dystrophin, utrophin and α-actinin were quantified using ImageJ.
With some experiments, 25×40 μm thick sections of cryopreserved tissues were used for western blotting to quantify amount of restored dystrophin protein. Extracted protein was run on 3-8% Tris-Acetate protein gels and visualized using specific primary antibodies against dystrophin or α-actinin the corresponding Licor secondary antibodies IRDye 680 or IRDye 800 (as set out above). Blots were imaged using the Licor Odyssey CLx and quantified using ImageJ.
Steel beads were added to the tissue, which was homogenized using the Tissuelyser II (Qiagen) for 2 min at a rate of 30/sec. Lysates were then incubated on ice and spun down; the supernatant was removed and stored at −80═ C. until immunoblotting, and the cell debris was discarded. For immunoblotting, 50 μg C57BL/6 muscle tissue protein or 150 μg Dup2 muscle tissue protein was loaded with a loading dye (1× laemmli) on a 3-8% Tris Acetate gel (Life Technologies, EA0378BOX). […] The membrane was scanned on the Odyssey CLx and imaged using Image Studio 14. Single color channel images were using Image Studio and then imported into ImageJ for quantification. For each channel, a box was drawn in each lane around the protein band using the “Gel” function in ImageJ. A histogram of each sample was then generated and the area under the curve was measured. Dystrophin was normalized to α-actinin by dividing the area of the dystrophin band by the area of the α-actinin band for each sample. If the same sample was run on multiple immunoblots, the median was taken to represent that particular sample. The C57BL/6 measurement was determined by taking the mean of all wild type samples. Both treated Dup2 and control Dup2 measurements were reported as a percentage of the wild type (n≥3).

[5] = qPCR quantification of viral vector genomes (biodistribution) in muscles of Dup2 mice; conditions: adult Dup2 mice, tail vein, 3 months post-injection
Protocol: Physical titer determination was determined based on degradation of non-encapsidated DNA following digestion of viral capsids. Released encapsidated DNA was quantified by qPCR to determine the DNAase Resistant Particle (DRP) titer. The DRP titer (also referred to as vector genomes [vg]) were determined for scAAV9.U7.ACCA or scAAV1.U7-ACCA products using real-time quantitative PCR (qPCR) using dilutions of a linearized plasmid standard containing U7 amplicon as assay standards. The DRP quantitative PCR (qPCR) assay involves serial dilution of the test sample (10^−2 to 10^−5) and sequential digestion with DNase I and Proteinase K, followed by qPCR analysis. DNA detection was accomplished using sequence specific primers targeting a primer/probe combination specific to the construct sequence (probe: 5′-[…]-3′ (SEQ ID NO: 4); Fw primer: 5′-agctcctatgttgttaTCTAGAG-3′ (SEQ ID NO: 5); Rv primer: 5′-[…]-3′ (SEQ ID NO: 6)) and amplified using a fluorescently tagged probe hybridizing to the U7 amplicon. Titration of the encapsidated viral genome were performed using quantitative PCR-based titration method runned on a Prism 7500 Taqman detector system (PE Applied Biosystems).
All tissues and organs for qPCR/Biodistribution studies were placed into sterile tubes, snap-frozen in liquid nitrogen, and kept at <−70° C. qPCR analyses were performed on samples at 1, 3 and 6 months post-injection. 300 ul DNA lysis buffer (0.05M Tris-HCl pH 8, 0.1M NaCl, 0.1M EDTA, 1% SDS) plus 7.5 ul proteinase K were added to sections and incubated at 55° C. overnight. DNA was quantified and 25 ng of DNA was run in triplicate. The same qPCR primers and probe used for vector titration were used to perform the tissue biodistribution qPCR studies. Data were represented as normalized copy number per 1 ug DNA.

[6] = tested on: tibialis anterior (TA) muscle; test: Force generation and protection from eccentric contractions, tibialis anterior of Dup2 mice; set-up: Eccentric contraction: % force decrease: scale not given here; conditions: tail vein adult Dup2 mice
Protocol: Physiologic studies were conducted on TA muscles from 12 week old mice that had been treated with an intramuscular injection of 3.1×10^11 vg at 8 weeks (N≥5 limbs). For systemic studies, the mice were 20-21 weeks old following 12 weeks of treatment (N≥12 limbs). The force study procedure was conducted using a modified version of Hakim's procedure (Hakim et al., J Appl. Physiol. (1985) 2011; 110:1656-1663; Wein et al., Nat. Med. 2014; 20:992-1000). Initial anesthetization of mice was conducted by giving an intraperitoneal injection of a cocktail containing five times their weight (i.e., the weight of the mouse) of 25 mg/mL ketamine and twice their weight of 2.5 mg/ml xylazine. […]
The resting force was set to between 3-4 g for a 10 minute equilibrium period. The TA muscle was then stimulated at the optimal length (Lo, mm) and active tetanic muscle force was recorded to give the absolute force measurement using the Lab View-based DMC program (Aurora Scientific). […] The cross-sectional area measured as mass (g)/(muscle density×ratio of fiber length×Lo) where muscle density is 1.06 mg/mm^3 and the ratio of fiber length in the TA is 0.6 (Burkholder et al., J Morphol 1994; 221:177-190). […] Statistical significance was assessed using a Kruskal-Wallace test assuming nonparametric data in the GraphPad Prism (version 6.03 for Windows, GraphPad Software, San Diego California USA). […]

[7] = tested on: utrophin; test: Western blot quantification of utrophin in muscles of Dup2 mice; conditions: adult Dup2 mice, tail vein, 3 months post-injection
Protocol: as §3

C[C@H]1C[C@@H]2[C@H]([C@@H](O)C[C@@]3(C)[C@H]2CC[C@]3(O)C(=O)COC(=O)CCC(=O)[O-])[C@@]2(C)C=CC(=O)C=C12.[Na+] [PDN, 6α-methylprednisolone 21-hemisuccinate sodium salt]
% of centronucleation ([1]; DIA): 68.55% | % of centronucleation ([1]; TA): 71.12% | % of EBD positive fibers ([2]; DIA): 12.31% | % of EBD positive fibers ([2]; GAS): 3.04% | % of EBD positive fibers ([2]; TA): 8.14% | % of EBD positive fibers ([2]; TRI): 2.57% | RT-PCR quantification: % of Del2 transcript ([3]; DIA): 0% | RT-PCR quantification: % of Dup2 transcript ([3]; DIA): 97.7% | RT-PCR quantification: % of WT transcript ([3]; DIA): 2.3% | RT-PCR quantification: % of Del2 transcript ([3]; GAS): 4.3% | RT-PCR quantification: % of Dup2 transcript ([3]; GAS): 86% | RT-PCR quantification: % of WT transcript ([3]; GAS): 9.6% | RT-PCR quantification: % of Del2 transcript ([3]; HEART): 0% | RT-PCR quantification: % of Dup2 transcript ([3]; HEART): 98.3% | RT-PCR quantification: % of WT transcript ([3]; HEART): 1.6% | RT-PCR quantification: % of Del2 transcript ([3]; TA): 0% | RT-PCR quantification: % of Dup2 transcript ([3]; TA): 100% | RT-PCR quantification: % of WT transcript ([3]; TA): 0% | RT-PCR quantification: % of Del2 transcript ([3]; TRI): 0% | RT-PCR quantification: % of Dup2 transcript ([3]; TRI): 98.3% | RT-PCR quantification: % of WT transcript ([3]; TRI): 1.7% | Western blot quantification: % of dystrophin ([4]; DIA): 9.2% | dystrophin expression ([4]; Dup2 mice, PDN alone): does not induce dystrophin expression | Western blot quantification: % of dystrophin ([4]; GAS): 2.1% | Western blot quantification: % of dystrophin ([4]; HEART): 13.7% | Western blot quantification: % of dystrophin ([4]; TA): 4.83% | Western blot quantification: % of dystrophin ([4]; TRI): 4.8% | viral vector genome quantification ([5]; DIA): 17 vector/ug DNA | viral vector genome quantification ([5]; GAS): 15 vector/ug DNA | viral vector genome quantification ([5]; HEART): 188 vector/ug DNA | viral vector genome quantification ([5]; TA): 39 vector/ug DNA | viral vector genome quantification ([5]; TRI): 50 vector/ug DNA | Absolute force: Force (mN) [6]: 1401 mN | Eccentric contraction: % force decrease ([6]; repeated eccentric contractions): 0.52 | Western blot quantification: ratio of utrophin/a-actinin ([7]; DIA): 0.6 | Western blot quantification: ratio of utrophin/a-actinin ([7]; GAS): 0.2 | Western blot quantification: ratio of utrophin/a-actinin ([7]; HEART): 0.5 | Western blot quantification: ratio of utrophin/a-actinin ([7]; TA): 0.3 | Western blot quantification: ratio of utrophin/a-actinin ([7]; TRI): 0.4

Reference: patent US20240261434A1, “PRODUCTS AND METHODS FOR TREATING MUSCULAR DYSTROPHY” (priority 2020, published 2024)
